Results reported in publication PMC9530963, “A cathelicidin antimicrobial peptide from Hydrophis cyanocinctus inhibits Zika virus infection by downregulating expression of a viral entry factor” (The Journal of Biological Chemistry, 2022).

Experiments:
[1] = system: ZIKV; assay: Binding of Hc-CATH to ZIKV (ELISA); parameters: species or system ZIKV strain PRVABC59; conditions: plates coated with 0.25 μM peptide, 1 × 10^6 PFU ZIKV, absorbance at 450 nm
Experimental: Figure 8 Hc-CATH directly inactivates ZIKV particles by disrupting viral membrane.A, schematic diagram of B–G (Hc-CATH-Vero-pre). B–G, direct inactivation of ZIKV by Hc-CATH. ZIKVs (MOI = 1) were incubated with Hc-CATH (2.5 μM), AC5 (2.5 μM), LL-37 (2.5 μM), or PBS (peptide solvent) at 37 °C for 2 h, and then the ZIKV–PBS mixture and ZIKV–peptide mixture were centrifugated at 100,000g for 70 min. The pellets were washed with PBS and centrifugated at 100,000g for 70 min again. The pellets were resuspended in PBS, added to Vero cells, and incubated for 2 h. Cells were washed with PBS and cultured in fresh DMEM containing 2% FBS. After culture at 37 °C for 48 h, the intracellular ZIKV RNA (B), NS3 protein (C and D), E protein level (E, the scale bar represents 50 μm), and extracellular ZIKV titer (F and G) were tested by qPCR, Western blot, immunofluorescence staining, and plaque-forming assay, respectively. H, binding of Hc-CATH to ZIKV. High-affinity binding plates were coated with 0.25 μM of Hc-CATH, BSA, AC5, or LL-37. Then, 1 × 10^6 PFU of ZIKV was added and incubated. […] Absorbance at 450 nm was measured after reactions were stopped using 0.5 M sulfuric acid. […] After the residual RNase was inactivated, the undigested genomic RNA in the intact ZIKV particles was extracted and quantified by testing the genes of PrM, E, and Cap proteins, respectively. ∗∗p < 0.01 and ∗∗∗p < 0.001. […]

[2] = system: ZIKV; conditions: i.v. peptide 2 h after i.v. ZIKV 10^6 PFU/mouse, qPCR
From the text: At 4, 8, and 3 days post ZIKV inoculation, C57BL/6J mice, Ifnar1^−/− mice, and pregnant C57BL/6J mice were sacrificed, respectively. Tissues and fetal mice were collected for testing ZIKV RNA by qPCR. ns, not significant, ∗p < 0.05, ∗∗p < 0.01, and ∗∗∗p < 0.001. Hc-CATH, a cathelicidin antimicrobial peptide identified from the sea snake Hydrophis cyanocinctus; PFU, plaque-forming unit; qPCR, quantitative PCR; ZIKV, Zika virus.
To evaluate the therapeutic efficacy of Hc-CATH against ZIKV infection, C57BL/6J mice, Ifnar1^−/− mice, and pregnant C57BL/6J mice were intravenously administrated with Hc-CATH at 2 h after intravenous injection of ZIKV (10^6 PFU/mouse). C57BL/6J mice, Ifnar1^−/− mice, and pregnant C57BL/6J mice were sacrificed at 4, 8, and 3 days post ZIKV inoculation, respectively. Tissues and fetal mice were collected for testing ZIKV RNA level by qPCR.

[3] = system: Vero, A549 or U251 cells; conditions: 1.25, 2.5, and 5 μM, 48 h, 37 °C, CCK-8
Experimental: Vero, A549 or U251 cells (1×10^4 cells/well) were seeded
in 96-well plates . Series of two -fold peptide dilutions in DMEM were added to each well to
give final concentrations from 0.78125 to 50 μM. After incubation at 37℃ for 48 h, cell
counting assay kit (CCK -8) was applied to determine the cytotoxicity. ***P < 0.001, ns, not

[4] = system: AXL; assay: AXL level in U251 cells (Western blot, immunofluorescence); assay type: cell-based, Homo sapiens; conditions: 1.25, 2.5, and 5 μM, 24 h, with and without ZIKV challenge
Experimental: Figure 5 Hc-CATH downregulates AXL in U251 cell.A, schematic diagram of B and C. B, U251 cells were seeded in 24-well plates (5 × 10^4 cells/well) and cultured in DMEM containing 2% FBS. Hc-CATH (1.25, 2.5, and 5 μM) or same volume of PBS (peptide solvent) was added to cells and incubated at 37 °C for 24 h. The level of AXL was tested by Western blot. C, U251 cells were seeded in 8-well cover slip chambers (5 × 10^4 cells/well) and cultured in DMEM containing 2% FBS. Hc-CATH (1.25, 2.5, and 5 μM) or PBS was added to cells and incubated at 37 °C for 24 h. The level of AXL was tested by immunofluorescence staining. The scale bar represents 50 μm. D, schematic diagram of E–G. E–G, U251 cells were seeded in 24-well plates (5 × 10^4 cells/well) and cultured in DMEM containing 2% FBS. Hc-CATH (1.25, 2.5, and 5 μM) or PBS was added to cells and incubated at 37 °C for 2 h. Cells were washed with PBS and incubated with ZIKV (MOI = 1). After incubation at 37 °C for 2 h, cells were washed with PBS and cultured in DMEM containing 2% FBS.
The effect of Hc-CATH on AXL was further confirmed in A549 and U251 cells. A549 or U251 cells were incubated with Hc-CATH (1.25, 2.5, and 5 μM) or PBS at 37 °C for 24 h, and the level of AXL was detected by WB and IF, respectively. Upon ZIKV challenge, A549 or U251 cells were incubated with Hc-CATH (1.25, 2.5, and 5 μM) or PBS at 37 °C for 2 h. […]

[5] = parameters: method as in PMID 26013823; conditions: cited from earlier work
[6] = system: bacteria; parameters: method as in PMID 26013823; conditions: cited from earlier work

In the case of “KFFKRLLKSVRRAVKKFRKKPRLIGLSTLL [Hc-CATH, cathelicidin antimicrobial peptide identified from the sea snake Hydrophis cyanocinctus]”, the “binding to ZIKV” value [1] is reported as “stronger binding affinity with ZIKV as compared with bovine serum albumin”, the “ZIKV replication in C57BL/6J mice, therapeutic” value ([2]; 4 days, tissue ZIKV RNA) is reported as “significantly attenuated ZIKV replication” and the “ZIKV replication in Ifnar1−/− mice, therapeutic” value ([2]; 8 days, tissue ZIKV RNA) is reported as “significantly attenuated ZIKV replication”. The “ZIKV replication in fetal placenta and fetal mice, therapeutic” value ([2]; pregnant C57BL/6J mice, 3 days) was “significantly attenuated ZIKV replication”, the “cytotoxicity against mammalian cells” value [3] was “did not have cytotoxicity” and the “level of AXL in U251 cells” value [4] was “effectively decreased the level of AXL”. For the same sequence, the anti-inflammatory activity [5] was “potent anti-inflammatory activity” and the antibacterial spectrum [6] was “broad antibacterial spectrum”.
